Measured values: patent US10301292B2, “Bicyclic compound” (Takeda Pharmaceutical Company Limited, priority 2014, dated 2019)

Assays:
[1] = biological target: T1, human ACC1 (Homo sapiens, UniProt Q13085); test: Measurement of ACC1 inhibitory activity (Malonyl-CoA production, RapidFire-mass spectrometry); format: biochemical; settings: 10 μM of the test compound; recombinant human ACC1; read-out: ACC1 inhibitory rate (%) at 10 μM
T1 construct: His tag (from vector pFAST-BacHTc; protein captured on Ni-NTA) (N); made in house; host or cells: SF-9 insect cells, recombinant baculovirus BAC-ACC1
Protocol: (1) Cloning of Human ACC1 Gene and Preparation of Recombinant Baculovirus
Human ACC1 gene was cloned by PCR using a human liver cDNA library (Clontech) as a template and Primer 1 and Primer 2 shown below. Primer 1 and Primer 2 were prepared by adding SalI, NotI restriction enzyme recognition sequences based on the information of the base sequence of human ACC1 gene (Genbank Accession U19822).
PCR was performed using Pyrobest DNA polymerase (TAKARA BIO INC.). The obtained PCR product was cloned to pT7 Blue vector (Novagen) and after confirmation of the base sequence, digested with restriction enzymes SalI and XbaI. The obtained DNA fragment was inserted into pFAST-BacHTc (Invitrogen) digested with restriction enzymes SalI and XbaI to give expression plasmid ACC1/pFAST-BacHTc.
Using the expression plasmid ACC1/pFAST-BacHTc and BAC-TO-BAC Baculovirus Expression System (Invitrogen), virus stock BAC-ACC1 of recombinant Baculovirus was prepared.
(2) Preparation of ACC1 Protein
SF-9 cells (Invitrogen) were inoculated to a medium (10 L) for insect cells (Sf-900IISFM medium (Invitrogen) containing 5% fetal bovine serum (Trace), 50 mg/L Gentamicin (Wako Pure Chemical Industries, Ltd.), 0.1% Pluronic F-68 (Invitrogen)) at 1.0×10^6 cells/mL, and cultured with shaking in Wave Bioreactor (GE Healthcare) at 27° C., 20 rpm, rocking angle 10°, oxygen concentration 30%.
On day 2 of the culture, recombinant Baculovirus BAC-ACC1 was added, and the cells were cultured for 3 days. The culture medium was centrifuged at 4000×g for 10 min to give virus-infected cells. The cells were washed with phosphate buffered saline (Invitrogen) and centrifuged under the same conditions. The obtained cells were cryopreserved at −80° C.
The cryopreserved cells were thawed in ice and suspended in 800 mL of 25 mM HEPES buffer (pH 7.5) containing 10% Glycerol, 0.3 M NaCl, 1 mM EDTA, 25 mM Sodium β-Glycerophosphate and 1 mM Sodium Orthovanadate, and supplemented with Complete Protease Inhibitor (Roche). The obtained suspension was homogenized two times in a polytron homogenizer (Kinematica) at 20,000 rpm for 20 sec. The obtained cell disruption solution was clarified by centrifugation at 186,000×g for 60 min and the supernatant was passed through Ni-NTA Superflow Cartridges (5 mL) (QUIAGEN). Furthermore, it was washed with 25 mM HEPES buffer (pH 7.5) containing 20 mM Imidazole, 0.3 M NaCl, and eluted with 25 mM HEPES buffer (pH 7.5) containing 250 mM Imidazol, 0.3 M NaCl. The eluate was concentrated by Amicon Ultra-15 (Nihon Millipore K.K.) having a fraction molecular weight of 50K. The obtained concentrate was subjected to gel filtration with 50 mM HEPES buffer (pH 7.5) containing 10 mM MgCl2, 2 mM dithiothreitol, 10 mM tripotassium citrate, 0.3 M NaCl by using HiLoad 26/60 Superdex200 prep grade gel filtration column (GE Healthcare) to give ACC1. The obtained ACC1 was cryopreserved at −80° C.
(3) Measurement of ACC1 Inhibitory Activity
ACC1 obtained in the above-mentioned (2) was diluted with an enzyme reaction buffer (50 mM HEPES (pH 7.5), 10 mM MgCl2, 10 mM Tripottasium Citrate, 2 mM Dithiothreitol, 0.001% Fatty acid free BSA) to a concentration of 0.2 μg/ml, and the mixture was added to each well of a 384 well assay plate by 10 μl. A test compound dissolved in dimethyl sulfoxide (DMSO) was diluted with an enzyme reaction buffer and the resulting solution (5 μl) was added to each well. The mixture was incubated at room temperature for 60 min. Then, a substrate solution (50 mM KHCO3, 200 μM ATP, 200 μM Acetyl-CoA, 5 μl) was added to each well, and the mixture was reacted at room temperature for 30 min. The reaction was quenched by adding a reaction quenching liquid (1.3% formic acid, 0.2 μM Malonyl-^13C3-CoA) by 60 μL each to the obtained reaction mixtures (test compound addition group).
In addition, a reaction was performed in the same manner as above and without adding the test compound (test compound non-addition group). […]

[2] = system: HCT116 cells; test: Growth inhibitory activity on HCT116 cell (CellTiter-Glo); format: cell-based; settings: Homo sapiens, HCT-116, 72 h, table head: 10 μM (text b2498: 1 μM), 3 days incubation, read-out: HCT116 cell proliferation inhibitory rate (%) at 10 μM
Protocol: The growth inhibitory activity of the compound on HCT116 cell was evaluated by the following method.
HCT116 cells were seeded in a 384 well blackplate at 900 cells/30 μL/well, and maintained in an RPMI medium (Wako)) containing an assay medium (2% fetal bovine serum, 50 Unit/mL penicillin, 50 μg/mL streptomycin (Invitrogen). The next day, a test compound dissolved in dimethyl sulfoxide (DMSO) was diluted with the assay medium, and the obtained compound solution was added by 10 μL to each well of a plate containing HCT116 cells and incubated at 37° C., 5% CO2 (test compound addition group).
A similar reaction was performed without adding a test compound (test compound non-addition group).
Furthermore, a similar reaction was performed under the conditions without adding HCT116 cell and a test compound (control group).
After 3 days, 20 μL of a CellTiter-Glo reagent (Promega KK) was added to the well, and the mixture was stirred for 10 min. Thereafter, the luminescence value of each well was measured by the EnVision™ multilabel counter (Perkin Elmer Inc.).
The HCT116 cell proliferation inhibitory rate (%) of the test compound was determined by the following calculation formula. (1−(luminescence of test compound addition group−luminescence of control group)÷(luminescence of test compound nonaddition group−luminescence of control group))×100

SMILES	inhibition at 10 µM [1] [%]	inhibition at 10 µM [2] [%]
CCCCn1cc(Oc2ccc(-c3nc4ccc(C(C)NC(C)=O)cc4o3)cn2)ccc1=O (stereo not drawn) [Example 105, N-(1-(2-(6-((1-butyl-6-oxo-1,6-dihydropyridin-3-yl)oxy)pyridin-3-yl)-1,3-benzoxazol-6-yl)ethyl)acetamide]	96	46
CC(NC(N)=O)c1ccc2nc(-c3ccc(Oc4cncc(OCC5CC5)c4)nc3)oc2c1 (stereo not drawn) [Example 106, 1-(1-(2-(6-((5-(cyclopropylmethoxy)pyridin-3-yl)oxy)pyridin-3-yl)-1,3-benzoxazol-6-yl)ethyl)urea]	103	33
CC(NC(N)=O)c1ccc2nc(-c3ccc(Oc4cccc(OCC(C)(F)F)c4)nc3)oc2c1 (stereo not drawn) [Example 107, 1-(1-(2-(6-(3-(2,2-difluoropropoxy)phenoxy)pyridin-3-yl)-1,3-benzoxazol-6-yl)ethyl)urea]	97	32

Continued, in another order:

inhibition at 10 µM [1] [%]	SMILES	inhibition at 10 µM [2] [%]
98	CC(=O)NC(C)c1ccc2nc(-c3ccc(Oc4cccc(OCC5CC5)c4)cc3)oc2n1 (stereo not drawn) [Example 104, N-(1-(2-(4-(3-(cyclopropylmethoxy)phenoxy)phenyl)[1,3]oxazolo[5,4-b]pyridin-5-yl)ethyl)acetamide]	30
100	CC(NC(N)=O)c1ccc2nc(-c3ccc(Oc4cccc(OCC5CC5)c4)nc3)oc2c1F (stereo not drawn) [Example 108, 1-(1-(2-(6-(3-(cyclopropylmethoxy)phenoxy)pyridin-3-yl)-7-fluoro-1,3-benzoxazol-6-yl)ethyl)urea]	36
97	CC(NC(N)=O)c1ccc2nc(-c3cnc(Oc4cccc(OCC5CC5)c4)cn3)oc2c1 (stereo not drawn) [Example 109, 1-(1-(2-(5-(3-(cyclopropylmethoxy)phenoxy)pyrazin-2-yl)-1,3-benzoxazol-6-yl)ethyl)urea]	27
